Measurements reported in ChEMBL document CHEMBL3885881, “DrugMatrix”.
Values joined by “and” are separate entries in the source; they are usually repeats but may differ in a detail not shown here. Equal entries are not always repeated.

Species: Rattus norvegicus
Format: toxicity, organism-based, Sprague-Dawley
Settings: in vivo, sc, 24 h, route mini-PUMP - SUBCUTANEOUS, time 1 day, vehicle 100 % SALINE; for ALBUMIN / ALKALINE PHOSPHATASE / ASPARTATE AMINOTRANSFERASE / BLOOD UREA NITROGEN / CARBON DIOXIDE / CHOLESTEROL / CREATINE PHOSPHOKINASE / CREATININE / GLUCOSE / LACTATE DEHYDROGENASE / PHOSPHORUS / POTASSIUM / SODIUM / TOTAL BILIRUBIN / URIC ACID: tissue Plasma
[1] = 0 mg/kg, vehicle control, tissue Blood, dose level Control
[2] = 0 mg/kg, vehicle control, dose level Control
[3] = 0.5 mg/kg, tissue Blood, dose level High
[4] = […], tissue Blood, dose 0.72 mg/Kg, dose level High
[5] = […], dose 0.72 mg/Kg, dose level High

Compound: CC[C@H](C)[C@H](NC(=O)[C@H](Cc1ccc(O)cc1)NC(=O)[C@@H](NC(=O)[C@H](CCCNC(=N)N)NC(=O)[C@@H](N)CC(=O)O)C(C)C)C(=O)N[C@@H](Cc1cnc[nH]1)C(=O)N1CCC[C@H]1C(=O)N[C@@H](Cc1ccccc1)C(=O)O [ANGIOTENSIN II]
- ABSOLUTE SEGMENTED NEUTROPHIL [1]: 1753.5 CELLS/uL
- BASOPHIL [1]: 0.4% and 0%
- EOSINOPHIL [1]: 0.3% and 0.17%
- ERYTHROCYTE COUNT [1]: 6.25 x10E6/uL and 5.64 x10E6/uL
- HEMATOCRIT [1]: 41.8% and 34.52%
- HEMOGLOBIN [1]: 13.33 G/DL and 12.68 G/DL
- LEUKOCYTE COUNT [1]: 11.55 x10E3/uL and 13 x10E3/uL
- MEAN CORPUSCULAR HEMOGLOBIN [1]: 21.37 pg and 22.5 pg
- MEAN CORPUSCULAR HEMOGLOBIN CONCENTRATION [1]: 31.93 G/DL and 36.78 G/DL
- MEAN CORPUSCULAR VOLUME [1]: 66.93 fL and 61.18 fL
- MONOCYTE [1]: 2.4% and 1.83%
- NEUTROPHIL [1]: 23.4% and 13.5%
- NUCLEATED RED BLOOD CELLS [1]: 0.17 /100WBC
- PLATELET COUNT [1]: 1265.33 x10E3/uL and 679.17 x10E3/uL
- ALBUMIN [2]: 3.63 G/DL and 3.77 G/DL
- ALKALINE PHOSPHATASE [2]: 385.33 u/L and 291.17 u/L
- ASPARTATE AMINOTRANSFERASE [2]: 79.33 u/L and 74.5 u/L
- BLOOD UREA NITROGEN [2]: 13.33 mg/dL and 15.33 mg/dL
- CARBON DIOXIDE [2]: 40.67 mmol/L and 30 mmol/L
- CHOLESTEROL [2]: 86.33 mg/dL and 65.33 mg/dL
- CREATINE PHOSPHOKINASE [2]: 190.33 u/L
- CREATININE [2]: 0.4 mg/dL and 0.15 mg/dL
- GLUCOSE [2]: 165.67 mg/dL and 179.83 mg/dL
- LACTATE DEHYDROGENASE [2]: 103.33 u/L and 162.67 u/L
- PHOSPHORUS [2]: 11.7 mg/dL and 12.2 mg/dL
- POTASSIUM [2]: 5.5 MEQ/L and 5.73 MEQ/L
- SODIUM [2]: 145 MEQ/L and 144.7 MEQ/L
- TOTAL BILIRUBIN [2]: 0.27 mg/dL and 0.15 mg/dL
- URIC ACID [2]: 1 mg/dL and 1.93 mg/dL
- ABSOLUTE BASOPHIL [3]: 13.3 cells/µL
- ABSOLUTE EOSINOPHIL [3]: 46.7 cells/µL
- ABSOLUTE LYMPHOCYTE [3]: 5400 cells/µL
- ABSOLUTE MONOCYTE [3]: 230 cells/µL
- BASOPHIL [3]: 0.13%
- EOSINOPHIL [3]: 0.6%
- ERYTHROCYTE COUNT [3]: 6.26 x10E6/uL
- HEMATOCRIT [3]: 42.23%
- HEMOGLOBIN [3]: 13.53 G/DL
- LEUKOCYTE COUNT [3]: 7.88 x10E3/uL
- MEAN CORPUSCULAR HEMOGLOBIN [3]: 21.63 pg
- MEAN CORPUSCULAR HEMOGLOBIN CONCENTRATION [3]: 32.03 G/DL
- MEAN CORPUSCULAR VOLUME [3]: 67.47 fL
- MONOCYTE [3]: 2.8%
- NEUTROPHIL [3]: 26.93%
- PLATELET COUNT [3]: 1308.33 x10E3/uL
- ALBUMIN (0.5 mg/kg, dose level High): 3.93 G/DL
- ALKALINE PHOSPHATASE (0.5 mg/kg, dose level High): 341.33 u/L
- ASPARTATE AMINOTRANSFERASE (0.5 mg/kg, dose level High): 74 u/L
- BLOOD UREA NITROGEN (0.5 mg/kg, dose level High): 14 mg/dL
- CARBON DIOXIDE (0.5 mg/kg, dose level High): 42.67 mmol/L
- CHOLESTEROL (0.5 mg/kg, dose level High): 106.33 mg/dL
- CREATINE PHOSPHOKINASE (0.5 mg/kg, dose level High): 299.33 u/L
- CREATININE (0.5 mg/kg, dose level High): 0.5 mg/dL
- GLUCOSE (0.5 mg/kg, dose level High): 169.33 mg/dL
- LACTATE DEHYDROGENASE (0.5 mg/kg, dose level High): 65.33 u/L
- PHOSPHORUS (0.5 mg/kg, dose level High): 11.73 mg/dL
- POTASSIUM (0.5 mg/kg, dose level High): 5.2 MEQ/L
- SODIUM (0.5 mg/kg, dose level High): 146.33 MEQ/L
- TOTAL BILIRUBIN (0.5 mg/kg, dose level High): 0.2 mg/dL
- URIC ACID (0.5 mg/kg, dose level High): 0.93 mg/dL
- ABSOLUTE EOSINOPHIL [4]: 30.33 CELLS/uL
- ABSOLUTE LYMPHOCYTE [4]: 10495 CELLS/uL
- ABSOLUTE MONOCYTE [4]: 212 CELLS/uL
- ABSOLUTE SEGMENTED NEUTROPHIL [4]: 2262.67 CELLS/uL
- BASOPHIL [4]: 0%
- EOSINOPHIL [4]: 0.33%
- ERYTHROCYTE COUNT [4]: 6.56 x10E6/uL
- HEMATOCRIT [4]: 38.97%
- HEMOGLOBIN [4]: 14.37 G/DL
- LEUKOCYTE COUNT [4]: 13 x10E3/uL
- MEAN CORPUSCULAR HEMOGLOBIN [4]: 21.9 pg
- MEAN CORPUSCULAR HEMOGLOBIN CONCENTRATION [4]: 36.87 G/DL
- MEAN CORPUSCULAR VOLUME [4]: 59.37 fL
- MONOCYTE [4]: 1.67%
- NEUTROPHIL [4]: 17.67%
- NUCLEATED RED BLOOD CELLS [4]: 0.33 /100WBC
- PLATELET COUNT [4]: 1167.67 x10E3/uL
- ALBUMIN [5]: 4 G/DL
- ALKALINE PHOSPHATASE [5]: 462 u/L
- ASPARTATE AMINOTRANSFERASE [5]: 98.67 u/L
- BLOOD UREA NITROGEN [5]: 19 mg/dL
- CARBON DIOXIDE [5]: 32 mmol/L
- CHOLESTEROL [5]: 87 mg/dL
- CREATININE [5]: 0.14 mg/dL
- GLUCOSE [5]: 171 mg/dL
- LACTATE DEHYDROGENASE [5]: 143.33 u/L
- PHOSPHORUS [5]: 13.13 mg/dL
- POTASSIUM [5]: 6.48 MEQ/L
- SODIUM [5]: 141.6 MEQ/L
- TOTAL BILIRUBIN [5]: 0.2 mg/dL
- URIC ACID [5]: 2.37 mg/dL
